What was measured:
[1] = Metabolic stability of the compound in rat microsomes assessed as compound remaining after 30 mins; assay type: ADME, Microsome; conditions: read-out: Stability
[2] = Total clearance in rat at 0.5 mg/kg, iv and 1 mg/kg, po; assay type: ADME, organism-based; conditions: in vivo
[3] = Cmax in rat at 0.5 mg/kg, iv and 1 mg/kg, po; assay type: ADME, organism-based; conditions: in vivo
[4] = AUC (0 to infinity) in rat at 0.5 mg/kg, iv and 1 mg/kg, po; assay type: ADME, organism-based; conditions: plasma
Cerebrospinal fluid = experiment: Drug uptake in rat cerebrospinal fluid at 0.5 mg/kg, iv and 1 mg/kg, po; assay type: ADME, organism-based; conditions: in vivo, read-out: Drug uptake
[5] = Volume of distribution at steady state in rat at 0.5 mg/kg, iv and 1 mg/kg, po; assay type: ADME, organism-based; conditions: in vivo, read-out: Vdss
[6] = Ratio drug uptake in brain to plasma of rat at 1 mg/kg, po; assay type: ADME, organism-based; set-up: dose 1 mg/kg, route oral; conditions: read-out: BPR
[7] = Bioavailability in rat at 0.5 mg/kg, iv and 1 mg/kg, po; assay type: ADME, organism-based; conditions: in vivo

SMILES	remaining at 0.5 h [1] [%]	further results
CCOc1ccc(Nc2nc3ccc(NS(=O)(=O)C(C)(C)C)cc3o2)cc1	57	–
C[C@@H]1CN(c2ccc(Nc3nc4ccc(NS(=O)(=O)C(C)(C)C)cc4o3)cc2)C[C@H](C)O1	68	–
CCS(=O)(=O)c1ccc2oc(Nc3ccc(OC(C)C)cc3)nc2c1	73	clearance [2]: 66 mL/min/kg; Cmax [3]: 6 ng/mL; AUC(0-inf) [4]: 40 ng·h/mL; concentration (Cerebrospinal fluid): 8.8 nM; Vd [5]: 2.62 L/kg; Kp [6]: 2.63; bioavailability [7]: 16%
CCOc1ccc(Nc2nc3ccc(NS(=O)(=O)CC)cc3o2)cc1	86	–
CCOc1ccc(Nc2nc3cc(S(=O)(=O)C(C)(C)C)ccc3o2)cc1	46	–
CCS(=O)(=O)c1ccc2oc(Nc3ccc(OC(F)(F)F)cc3)nc2c1	97	–
CCOc1ccc(Nc2nc3cc(NS(=O)(=O)CC)ccc3o2)cc1	59	–
CCS(=O)(=O)c1ccc2oc(NC(C)(C)c3ccccc3)nc2c1	35	–
CCS(=O)(=O)c1ccc2oc(Nc3ccc(Cl)cc3)nc2c1	81	–
CCS(=O)(=O)c1ccc2oc(Nc3ccc(N4C[C@@H](C)O[C@@H](C)C4)cc3)nc2c1	85	clearance [2]: 33 mL/min/kg; Cmax [3]: 26 ng/mL; AUC(0-inf) [4]: 260 ng·h/mL; concentration (Cerebrospinal fluid): 15.9 nM; Vd [5]: 1.74 L/kg; Kp [6]: 0.64; bioavailability [7]: 52%
CCOc1ccc(Nc2nc3ccc(S(=O)(=O)CC)cc3o2)cc1	81	–
CCS(=O)(=O)c1ccc2oc(Nc3ccc(N4C[C@@H](C)O[C@@H](C)C4)nc3)nc2c1	59	–
CCS(=O)(=O)c1ccc2oc(Nc3ccc(N4C[C@@H](C)O[C@@H](C)C4)c(F)c3)nc2c1	61	–
CCS(=O)(=O)c1ccc2oc(Nc3ccc(N4CCOCC4)nc3)nc2c1	81	–
CCS(=O)(=O)c1ccc2oc(NC3CCCCC3)nc2c1	45	–
CCOc1ccc(Nc2nc3cc(S(=O)(=O)C(C)C)ccc3o2)cc1	49	–
CCS(=O)(=O)c1ccc2oc(Nc3ccccc3C(F)(F)F)nc2c1	68	–
CCS(=O)(=O)c1ccc2oc(Nc3ccc(C(F)(F)F)nc3)nc2c1	99	–
CCS(=O)(=O)c1ccc2oc(Nc3cccc(C(F)(F)F)c3)nc2c1	63	–
CCS(=O)(=O)c1ccc2oc(Nc3ccc(C(F)(F)F)cn3)nc2c1	97	–
CCS(=O)(=O)c1ccc2oc(Nc3ccccc3)nc2c1	53	–
CCS(=O)(=O)c1ccc2oc(NC3CCC(C(C)(C)C)CC3)nc2c1 (mixture of isomers)	1	–
CCS(=O)(=O)c1ccc2oc(Nc3ccc(C(C)(C)C)cc3)nc2c1	27	–
CCS(=O)(=O)c1ccc2oc(Nc3ccc(N4CCOCC4)cc3)nc2c1	88	–
CCS(=O)(=O)c1ccc2oc(Nc3ccc(C(F)(F)F)cc3)nc2c1	101	–
CCS(=O)(=O)c1ccc2oc(NCc3ccccc3)nc2c1	46	–
CCOc1ccc(Nc2nc3cc(S(C)(=O)=O)ccc3o2)cc1	62	–

— ChEMBL document CHEMBL1955773, “Hit to lead SAR study on benzoxazole derivatives for an NPY Y5 antagonist” (Bioorg Med Chem Lett, 2012)
